Data reported in article PMC5156807, “Stabilized Polymer Micelles for the Development of IT-147, an Epothilone D Drug-Loaded Formulation” (Journal of Drug Delivery, 2016).
Read-outs that look alike come from different tables or passages of the source.

Key:
[1] = intraperitoneal bolus, mouse tumor models; cited from earlier work
[2] = Stability of drug substance in pilot formulations (mass spectrometry); assay type: physicochemical
Text: Epothilones B and D were selected for encapsulation using triblock copolymers. […] This was not completely surprising as stability of epothilone B both in vitro and in vivo has been addressed in the literature. Epothilone D, the alkene derivative of epothilone B (also known as desoxy-epothilone B), was selected as the preferred drug substance for encapsulation due to increased stability in aqueous environments and pH fluctuations. A small library of triblock copolymers was used to conduct pilot formulations of epothilone D drug-loaded micelles, with the ultimate goal to select IT-147, the lead for development of an epothilone D encapsulated polymer micelle formulation. Five of the polymers chosen for the library contained stabilizing blocks comprised of hydroxamic acid functionalized poly(glutamic acid), and five of the polymers contained poly(cysteine) amino acid moieties as stabilizing blocks (Figure 2, Table 1). All polymers contained a 12 kDa PEG and a mixture of hydrophobic amino acids with D and L isomers in the core block. Pilot formulations were characterized by determining formulation efficiency, epothilone D drug loading (% w/w), average particle diameter, and retention of epothilone D following dialysis above and below the critical micelle concentration (Table 1).

[3] = Plasma pharmacokinetic screening of pilot formulations in cannulated rat model; assay type: in vivo, Sprague-Dawley rats; details: rat plasma epothilone D, 10 mg/kg fast bolus jugular vein catheter
Description: The lead hydroxamic acid and cysteine containing formulations were compared to free epothilone D using a cannulated rat model by administering a 10 mg/kg dose by fast bolus to the jugular vein catheter. Female, Sprague-Dawley rats surgically modified with jugular vein catheters exteriorized posteriorly were purchased from Harlan Labs. Catheters were flushed and maintained with heparinized saline to ensure patency over the study period. The catheter port was used for both test article administration and blood collection. IT-147 pharmacokinetics at 20, 30, and 40 mg/kg were compared to epothilone D free drug at 20 mg/kg in the cannulated rat model. IT-147 was reconstituted in saline, while epothilone D free drug was reconstituted in cremaphor : ethanol : saline at 1 : 1 : 4 ratio. All in vivo studies were conducted under Institutional Guidelines. The Institutional Animal Care and Use Committee (IACUC), at the University of South Florida (USF), approved all rat in vivo study protocols. Animals were maintained and evaluated under pathogen-free conditions in accordance with USF College of Medicine IACUC standards of care. Approximately 300 μL of blood was collected into K2EDTA tubes containing PMSF (final concentration 2.5 mM) at time points of 1, 5, 15, and 60 minutes after test article administration. Samples were centrifuged at 2000 RPM for 5 minutes to isolate plasma. Plasma was aliquoted into microcentrifuge tubes and frozen at −20°C until processed for HPLC/UV analysis. […]
Stability of polymer micelles to dilution is one of the most important physiochemical characteristics for a formulation to be successful in vivo. […] The top two candidates from the pilot epothilone D formulations were evaluated, along with epothilone D free drug, using a cannulated rat model for pharmacokinetics. Selection of the lead epothilone D formulation, termed IT-147, was determined from the exposure of epothilone D to the plasma compartment by calculating the area under the concentration versus time curve (AUC) and maximum concentration (C max). […]

[4] = Dialysis stability / pH-dependent release assay; assay type: physicochemical; details: 20 mg/mL, 3500 MWC, 10 mM phosphate buffer, 6 hours, room temperature; epothilone D retained
Description: Retention of the epothilone drug substance within the micelle formulation and the release profile of the drug substance over time, concentration, and pH were investigated using dialysis. Formulations were reconstituted at concentrations of 20 mg/mL and 0.2 mg/mL and placed in dialysis tubing with 3500 MWC pore size, which allows for retention of the micelles within the bag and release of the free drug from the bag into the reservoir. A volume of 3 mL of reconstituted formulation was placed into dialysis bags and then placed in a 300 mL reservoir containing 10 mM phosphate buffer and stirred for 6 hours at room temperature. HPLC assay for epothilone concentration of the formulation inside the bag was done before and after dialysis to determine the percentage of epothilone retained inside the dialysis bag over 6 hours. pH-dependent release was performed using 10 mM phosphate buffer at pH 3, 4, 5, 6, 7, 7.4, and 8 in the reservoirs during dialysis.

[5] = Pilot toxicokinetic dose range-finding study in cannulated rat model; assay type: in vivo, Sprague-Dawley rats; details: for Dose limiting Toxicities / average weight loss: rat, 20 mg/kg; for Dose limiting Toxicities: w.l. = weight loss; for average weight loss: four days
Description: The lead hydroxamic acid and cysteine containing formulations were compared to free epothilone D using a cannulated rat model by administering a 10 mg/kg dose by fast bolus to the jugular vein catheter. Female, Sprague-Dawley rats surgically modified with jugular vein catheters exteriorized posteriorly were purchased from Harlan Labs. Catheters were flushed and maintained with heparinized saline to ensure patency over the study period. The catheter port was used for both test article administration and blood collection. IT-147 pharmacokinetics at 20, 30, and 40 mg/kg were compared to epothilone D free drug at 20 mg/kg in the cannulated rat model. IT-147 was reconstituted in saline, while epothilone D free drug was reconstituted in cremaphor : ethanol : saline at 1 : 1 : 4 ratio. All in vivo studies were conducted under Institutional Guidelines. The Institutional Animal Care and Use Committee (IACUC), at the University of South Florida (USF), approved all rat in vivo study protocols. Animals were maintained and evaluated under pathogen-free conditions in accordance with USF College of Medicine IACUC standards of care. Approximately 300 μL of blood was collected into K2EDTA tubes containing PMSF (final concentration 2.5 mM) at time points of 1, 5, 15, and 60 minutes after test article administration. Samples were centrifuged at 2000 RPM for 5 minutes to isolate plasma. Plasma was aliquoted into microcentrifuge tubes and frozen at −20°C until processed for HPLC/UV analysis. The following bioanalytical method is a modification of the procedure originally developed by Yuan et al.. Bioanalytical sample preparation was performed by liquid : liquid extraction. 50 μL of plasma sample was added to 600 μL of n-butyl chloride and vortexed for 10 minutes. Samples were centrifuged at 10,000 RPM for 10 minutes and the organic supernatant was aliquoted into microcentrifuge tubes. The n-butyl chloride supernatant was evaporated to dryness using a turbovap with nitrogen flow at room temperature, and 75 μL of a 40% acetonitrile in water solution was added to each tube. Samples were then vortexed for 5 minutes, aliquoted into HPLC vials, and processed using HPLC methodology as described in Section 2.3. Blank rat plasma containing PMSF was used to spike in epothilone D for standard curve preparation and processed as described for the plasma samples to determine concentration of epothilone D isolated from the samples collected from the cannulated rats. Noncompartmental analysis of the pharmacokinetic data was done using Phoenix WinNonlin version 6.3.
A pilot dose range-finding toxicokinetic study in a cannulated rat model was performed to support future full scale toxicokinetic studies of IT-147. Doses of IT-147 at 20, 30 and 40 mg/kg were compared to epothilone D free drug at 20 mg/kg (Table 3, Figure 7) followed by monitoring of animal weight change, gross signs of clinical toxicity, and limited plasma sampling for pharmacokinetic analysis (Table 4). IT-147 was reconstituted in saline while epothilone D free drug was administered in a cremaphor : ethanol : saline mixture. Test articles were given by fast bolus to the rat jugular vein, and blood was collected at time points of 1 minute, 5 minutes, 15 minutes, 1 hour, 2 hours, 4 hours, and 6 hours. […] Samples collected after the 1-hour time point were below the limit of quantitation for analysis. […] It was concluded that 20 mg/kg epothilone D free drug was above the maximum tolerated dose for these animals. […] Animals were monitored for one week following test article administration. […] Animals were monitored for four days after test article administration and were euthanized on the fourth day due to welfare concerns. […] It was concluded that 40 mg/kg epothilone D from IT-147 was above the maximum tolerated dose for these animals.

[6] = female, Sprague-Dawley, iv, rat plasma, 20 mg/kg epothilone D equivalent, fast bolus jugular vein

Structure (SMILES)	LD50 [1] [mg/kg]	maximum tolerated dose [1] [mg/kg]	stability of the drug substance (epoxide ring) under formulation conditions [2]	concentration at 60 min ([3]; female, Sprague-Dawley, intravenous, 60 minutes, read-out: Clast) [ng/mL]	Cmax ([3]; female, Sprague-Dawley, intravenous, at 1 minute) [ng/mL]	AUC(0-1 h) [3] [h∗µg/mL]	Dialysis > CMC (% remaining) [4] [%]	maximum tolerated dose ([5]; cannulated rat, single fast bolus, epothilone D equivalent, listed as epothilone D free drug) [mg/kg]	Cmax [5, 6] [ng/mL]	clearance [5, 6] [mL/min/kg]	half-life ([5]; female, Sprague-Dawley, iv, terminal, rat plasma, 20 mg/kg epothilone D equivalent, fast bolus jugular vein) [min]	AUC(0–6 h) ([5]; rat plasma, 20 mg/kg epothilone D equivalent, fast bolus jugular vein) [h∗µg/mL]	Dose limiting Toxicities ([5]; 20 mg/kg epothilone D equivalent, listed as Epo D)	Dose limiting Toxicities ([5]; 20 mg/kg epothilone D equivalent, listed as Epothilone D free drug)	Dose limiting Toxicities ([5]; 20 mg/kg epothilone D equivalent, listed as epothilone D free drug)	average weight loss ([5]; listed as Epothilone D free drug) [%]	average weight loss ([5]; listed as epothilone D free drug)
C/C(=C\c1csc(C)n1)[C@@H]1C[C@@H]2O[C@]2(C)CCC[C@H](C)[C@H](O)[C@@H](C)C(=O)C(C)(C)[C@@H](O)CC(=O)O1 [epothilone B]	0.6	0.3	unstable to all experimental formulation conditions	–	–	–	–	–	–	–	–	–	–	–	–	–	–
C/C1=C/C[C@@H](/C(C)=C/c2csc(C)n2)OC(=O)C[C@H](O)C(C)(C)C(=O)[C@H](C)[C@@H](O)[C@@H](C)CCC1 [epothilone D]	–	25	–	1600 ± 800	19700 ± 4100	5.2	15	< 20	32200	40.2	18	8.3	>10% w.l. lethargy impaired gait orbital-bleeding	lethargy, impaired gait, orbital bleeding, porphyrin accumulation around the face, and disheveled fur	lethargy, gait impairment, and retro-orbital bleeding	12	greater than 10%
